# Source: a melting point compilation (Tetko et al.; mined from patent text by program, amines drawn as free bases though some values may be those of a salt)
row,melting point,SMILES
1,260 °C,CCOC(=O)C(=O)Nc1cc2[nH]c(=O)c(=O)n(C3CCCCC3)c2cc1[N+](=O)[O-]
2,90 °C,C=C[C@H](C)[C@@](N)(C(N)=O)c1ccccc1 (relative stereo)
3,189 to 191 °C,O=C(Nc1cc(CCCS(=O)(=O)c2ccc(Cl)cc2)ccc1OCc1nnn[nH]1)c1cccc(OCc2nc3ccccc3s2)c1
4,140 to 142 °C,CCCc1c(OCc2ccc(OCC(=O)O)cc2)ccc(C(C)=O)c1O
5,220 °C,O=C(O)c1ccc(C2OC23Cc2ccccc2C3=O)cc1 (centres undefined)
6,159 to 161 °C,O=C(O)C1=CC(CF)(CF)Oc2ccc(C(F)(F)F)cc21
7,164 to 167 °C,Nc1nc(CCCc2ccccc2)nc2nc(-c3ccco3)nn12
8,168 to 170 °C,CON(C)CCNc1ncnc2nc[nH]c12
9,159 to 161 °C,COCCNC(=O)c1nc2cc(NC(=O)c3c(C(=O)N4CCC4)cnn3C)ccn2n1
10,300 to 301 °C,CCOC(=O)c1csc(Nc2ccc(Br)cn2)n1
11,82 to 85 °C,Cn1nc(-c2ccccc2Cl)nc1-c1ccccc1Cl
12,168 to 172 °C,CC(C)(C)c1ccc(S(=O)(=O)N2c3ccc(F)cc3CC2C(=O)NCCc2ccccc2)cc1 (centres undefined)
13,165 to 167 °C,CS(=O)(=O)c1ccc(-c2sc(-c3ccc(F)c(Cl)c3)nc2-c2ccc(F)cc2)cc1
14,115 to 120 °C,CCCCCCC(C(=O)O)n1ccc2cc(-c3ccccc3C(=O)O)ccc21 (centres undefined)
15,177 to 178 °C,Cc1ccccc1N(C(=O)Nc1cc(C)c(S(=O)(=O)C[N+](=O)[O-])c(C)c1)C(C)C
16,78 to 80 °C,OCc1cccc(-n2cccc2)c1Br
17,181 °C,CC1(C(=O)O)Oc2ccc(Cl)cc2C(C)(c2ccccc2)O1 (centres undefined)
18,164 to 165 °C,COc1cc(OC(C)(C)C(=O)O)c(/C=C/C(=O)c2ccc(S(N)(=O)=O)cc2)cc1-c1cccs1
19,305 to 307 °C,FC(F)(F)Oc1ccc2[nH]c(S)nc2c1
20,91 to 93 °C,CCOC(=O)c1cc(OCC)c(OC(C)C)cc1N
21,179 °C,Cc1cc(C)c(O)c(-c2cc(C(C)C)ccc2C(C)C)c1
22,133 to 134 °C,O=c1c(Br)c(OCc2ccccc2C(F)(F)F)ccn1Cc1ccccc1
23,158 to 159 °C,COC(=O)c1cc2ccccc2n1-c1ccccn1
24,47 to 50 °C,CCOC(=O)CCCCCCOc1cc2c(c(Cl)c1Cl)C(=O)C(C)(C1CCCC1)C2 (centres undefined)

row,melting point,SMILES
1,88.2 to 88.6 °C,N#Cc1cccc(-c2cccs2)n1
2,250 °C,Cc1cc2cc(CN3CCC(C(=O)N4CCCCC4)CC3)cnc2cc1NC(=O)c1ccc(-c2ccc(F)cc2)cc1
3,223 to 224 °C,Cc1ccc(-n2c(-c3ccc(C#C[Si](C)(C)C)cc3)ccc2-c2ccc(C#C[Si](C)(C)C)cc2)cc1
4,254 to 256 °C,CS(=O)(=O)N1CCN(c2ccc(NC(=O)c3ccccc3-c3ccc(C(F)(F)F)cc3)cc2)CC1
5,51 to 53 °C,CC(C)(C)OC(=O)NCc1ccccc1Br
6,72 to 73 °C,O=C(O)C(Cl)=C(Cl)C(O)=NCCCc1ccc(Cl)cc1
7,128 to 131 °C,CCCOc1cccc(CCCOc2ccc3c(c2)C=C(C(=O)O)CCS3(=O)=O)c1
8,210 to 211 °C,COCCc1nc2c(N)nc3cc(-c4cncc(CO)c4)ccc3c2n1CC(C)(C)O
9,133 to 135 °C,CC(=O)Oc1ccc(C(C)=NOCCOc2ccc(CC3SC(=O)NC3=O)cc2)cc1 (centres undefined)
10,164 °C,COc1ccc(-c2ccc(OC(C)CC(C)Oc3ccc(-c4ccc(OC)cc4)cc3)cc2)cc1 (centres undefined)
11,35.5 to 45.5 °C,CC(C)(C)OC(=O)N1CCN(CCO[Si](C)(C)C(C)(C)C)C1=O
12,99 to 100 °C,CC(C)C[C@@H]1NC(=O)O[C@H]1CCOS(C)(=O)=O
13,141 to 145 °C,CC1(C)CON(Cc2ccc(N3C(=O)c4ccccc4C3=O)cc2Cl)C1=O
14,156 to 158 °C,CCC(OC(=O)COC)c1ccc(Cl)c2nc3n(c12)CCCN3c1ccc(Cl)cc1Cl (centres undefined)
15,155 to 156 °C,O=C(O)/C=C/c1ccc(C(=C2CCCCCC2)c2ccc(O)c(Cl)c2)cc1
16,167 °C,COc1ccc(CCNC(=O)C(=O)Nc2cccnc2)cc1OC1CCCC1
17,67 to 68 °C,CCCCCCCCCCCCCCOc1ccc(OC(=O)N(C)Cc2ccccn2)cc1
18,94 to 96 °C,CCOC(Cc1ccc(OCCN2CCOc3ccccc32)cc1)C(=O)NCc1ccccc1 (centres undefined)
19,130 to 132 °C,COC(=O)c1ccc(-c2ccc(-c3ccccc3)c(-c3ccc4c(c3)C(C)(C)CCC4(C)C)c2)cc1C
20,84 to 86 °C,COC(=O)c1cnc(S)n1C1CCCC2CCCCC21 (centres undefined)
21,47 °C,CCCC=Cn1c2ccccc2c2ccccc21
22,312 to 313 °C,Cc1c(/C=C/c2ccccc2)nc2ccc(C(=O)O)cn2c1=O
23,174 to 178 °C,O=C(c1ccc([N+](=O)[O-])cc1)N1Cc2cccn2-c2ccccc21
24,158 °C,COc1cc(N)c(Cl)cc1C(=O)N[C@H]1CCN(CCCNc2ncccn2)C[C@H]1OC (relative stereo)

row,melting point,SMILES
1,174 to 176 °C,O=C(/C=C/C(=O)c1ccc(Cl)cc1)c1ccc(Cl)cc1
2,105 to 106 °C,O=c1cc(SCc2ccccc2)cco1
3,73 to 74 °C,CCn1nc(OCCCc2ccc(OC(C)C)cc2Oc2ncc(C(F)(F)F)cc2Cl)cc1CCC(=O)O
4,> 300 °C,Cc1[nH]c(=O)c(C#N)cc1-c1ccncc1
5,237 to 239 °C,COc1cc(C=c2[nH]c(=O)c(=Cc3ccc(OCc4ccccc4)cn3)[nH]c2=O)cc(OC)c1
6,170 to 174 °C,COC(=O)C=C(NC1C=CC=CC1(F)NC(=CC(=O)OC)C(=O)OC)C(=O)OC (centres undefined)
7,141 to 142 °C,CC(C)(C)OC(=O)N1CCN(c2ccc([N+](=O)[O-])cc2C#N)CC1
8,204 to 206 °C,CCNc1nc2ccc(CCc3ncc[nH]3)cc2o1
9,148 °C,c1ccc(COc2ccc3[nH]cc(Cc4cccnc4)c3c2)cc1
10,127 to 128 °C,O=c1[nH]c(=O)n(CCCCCl)c2ccccc12
11,158 to 159 °C,COc1cccc(CC(=O)O)c1OCCCc1cn(-c2ccc(NC(C)=O)cn2)nc1C(C)C
12,122 to 124 °C,Clc1ccc(Br)c2nc(SCc3ccccc3)nn12
13,147 to 150 °C,CCn1c(-c2ccc(OC)c(OC)c2)cc(=S)n(C)c1=O
14,326 to 329 °C,Brc1ccc(-c2cc3nccnc3[nH]2)cc1
15,137 to 140 °C,CCCCc1nn(-c2cc(NC(=O)CC)ccc2Cl)c(=O)n1Cc1ccc(-c2ccccc2S(=O)(=O)NC(=O)OC(C)(C)C)cc1F
16,77 to 79.5 °C,CCC(=O)c1ccc(OC)c(OC(=O)CCl)c1
17,83 °C,Oc1cc2c(cc1C=CCc1ccccc1)OCO2
18,108 °C,CCOCCOc1ccc(CCNC(=O)c2ccccc2CC(=O)OCC)cc1
19,189 to 192 °C,CC(O)(CF)C(=O)Nc1ccc(S(=O)(=O)c2ccccc2)cc1 (centres undefined)
20,102 to 104 °C,O=C(c1c(C2CC2)nn2ccccc12)C1CC1
21,147 to 149 °C,O=C1NCCc2c(-c3cccc(Cl)c3)[nH]c3cccc1c23
22,167 to 168 °C,Cn1cc(-c2cccc(C3NCCc4c3sc3c4CC(C)(C)C3)c2CO)cc(Nc2cnn3c2COCC3)c1=O (centres undefined)
23,105 to 106 °C,COCOc1ccc(CCNC(=O)/C(C#N)=C/c2cccnc2)cc1
24,79 to 81 °C,CC(=O)c1ccc(C(C)Oc2cccc(C(=O)Nc3ccc(C#N)cc3)c2)cc1 (centres undefined)

row,melting point,SMILES
1,80 to 81.5 °C,COC(=O)CCC(=O)c1ccccc1OCC(O)CNC(C)(C)C (centres undefined)
2,138 °C,C=CCOC1C(NC(C)=O)C(OCc2ccccc2)OC(COCc2ccccc2)C1OCc1ccccc1 (centres undefined)
3,208 to 210 °C,C=C1OC(=NO)C(c2ccccc2)C(=O)N1C(C)(C)C(=O)Nc1cc(Cl)cc(Cl)c1 (centres undefined)
4,212 to 213 °C,COc1c(NC(=O)Nc2ccc(Oc3cc(C)nc(C)n3)c3ccccc23)cc(C(F)(F)F)cc1NS(C)(=O)=O
5,355 to 358 °C,NC(=O)c1cc2c3ccccc3[nH]c(=O)n2n1
6,137 to 138 °C,CC(C)c1ccc2c(c1)c(SCC1CC1)c(CC(C)(C)C(N)=O)n2Cc1ccc(Cl)cc1
7,186 to 189 °C,CC(=O)N1CCC(OC(=O)c2ccccc2)(c2nccc3ccccc23)CC1
8,151 to 152 °C,O=C(C=Cc1ccco1)NCCCCCC(=O)NO
9,136 to 137 °C,Nc1sc(CC(O)CO)cc1C(=O)c1ccccc1Cl (centres undefined)
10,208 to 210 °C,OCc1cc(Cl)c(N=C2NCCN2)c(Cl)c1
11,82 °C,COc1cc(OC)nc(Oc2cccc(O)c2C=O)n1
12,196 to 199 °C,Cc1c(Cc2ccncc2)nnc(Nc2ccc(Cl)cc2)c1C
13,116 to 121 °C,CN(Cc1ccc(NC(=O)C2=Cc3cc(Br)ccc3CCC2)cc1)C1CCOCC1
14,48 to 49 °C,CCC(N)C(=O)Nc1c(C)cccc1C (centres undefined)
15,90 to 93 °C,CN1CCC(OC(=O)Cc2cnn(-c3ccccc3)c2-c2ccc(Cl)cc2)CC1
16,164 to 165 °C,O=C(Nc1ccc2[nH]c(CO)cc2c1)c1cc2ccccc2o1
17,129 to 130 °C,Cc1oc(C2CC2)nc1COc1ccc(CC(OC(C)C)C(=O)O)c2ccccc12 (centres undefined)
18,188 °C,Cc1csc(NC(=S)Nc2cc(Cl)ccc2C)n1
19,206 to 208 °C,COc1ccc(Cl)cc1C1(F)C(=O)Nc2ccc(Br)cc21 (centres undefined)
20,203 to 205 °C,CCOCc1nc2c(N)nc3c(c2n1CCCCCS(N)(=O)=O)CCCC3
21,234 °C,Cc1cc(Nc2nc(-c3ccccc3)nc3ncccc23)[nH]n1
22,134 to 136 °C,NS(=O)(=O)c1cnc(-c2cccs2)s1
23,146 °C,Cc1cc(=O)c(Oc2ccc(F)cc2C)c(-c2ccc(S(C)(=O)=O)cc2)o1
24,126 to 128 °C,O=C(CCc1ccccc1)c1ccc2n1Cc1ccccc1N(C(=O)COc1ccc(Cl)cc1)C2

row,SMILES,melting point
1,O=C(CCl)c1cccnn1,104 to 106 °C
2,CN1CC=C(c2ccnc(C(=O)N(O)Cc3ccccc3)c2)CC1,135 to 155 °C
3,CC12CCC(=O)C([N+](=O)[O-])=C1CCC1C2CCC2(C)C(O)CCC12 (centres undefined),158 to 160 °C
